Laboratory results from patent US20050129618A1, “Drugs for ameliorating itch, rough skin or hypersensitive skin or for whitening via inhibition of the production and release of stem cell factor” (Shiseido Co., ltd., priority 2001, published 2005).

Tested on: SCF expression on keratinocyte membranes
Test: Accelerated SCF expression on keratinocyte membranes by different stimulations
Format: cell-based, human
Conditions: chemical stimulation, culturing for 24 hours; FIG. 4
Protocol: After plating 1.5 million keratinocytes on a 10 cm plate and culturing for 72 hours, the cells were stimulated by one of the following: (1) exchanging the medium with PBS(−), irradiating the culture with UVB at 20 mJ/cm^2 and then immediately exchanging the PBS(−) with medium, (2) adding forskolin, or (3) adding theophyllin. After culturing for 24 hours, the cells were collected and then dispersed in 200 μl of 50 mM phosphate buffer solution (pH 7.8)+protease inhibitor solution, and the cells were then disrupted with an ultrasonic disrupter for five 30-second disruption cycles at 4° C. After centrifugation at 10,000 g for 20 minutes at 4° C., the supernatant was further centrifuged at 100,000 g for 60 minutes at 4° C. The obtained pellet was dissolved in 100 μl of 25 mM phosphate buffer solution (pH 6.8)+0.1% Triton-X100 solution and a membrane fraction protein extract was obtained. The protein content of the solution was measured by an established method, and then the SCF amount was assayed to obtain an SCF/protein value.

## Cn1c(=O)c2[nH]cnc2n(C)c1=O [theophyllin]
  expression of SCF in the cells or on the cell membranes (SCF/protein value of membrane fraction): accelerated expression of SCF
